From patent publication US20080063628A1, “METHODS TO PROMOTE CELL DIFFERENTIATION” (priority 2006, published 2008)

Legend:
[1] = system: Neonatal fibroblasts (Hs27); assay: Trichostatin A 48 h treatment, gene expression by Real-Time PCR (Example 1); format: cell-based, human
Protocol: (§1) Neonatal fibroblasts, also designated Hs27, were derived from human foreskins and obtained from the American Type Culture Collection (ATCC). Panc-1 cells are a transformed cell line derived from a pancreatic epitheloid carcinoma of ductal origin, also obtained from ATCC.
(§2) Fibroblasts or Panc-1 cells were seeded into a 6-well tissue culture plate at a density of 50,000 cells/cm^2. Both cell types were cultured in medium containing 10% FBS and DMEM under standard cell culture conditions (37° C., 5% CO2). After reaching confluence (2-3 days), trichostatin A diluted in dimethyl sulfoxide (DMSO) and medium was added at either 2.5 μM or 5 μM to the cultures. Parallel cultures were treated with an equivalent concentration of DMSO as a vehicle control.
(§3) RNA samples were obtained from the treated cultures 48 hours after the addition of trichostatin A or DMSO. The culture medium was removed, the cells were washed with phosphate buffered saline (PBS), and RLT Lysis buffer containing β-mercaptoethanol (Qiagen) was added. The samples were homogenized using Qiashredder columns (Qiagen), and RNA was purified using the RNeasy Mini Kit (Qiagen). RNA quantity and quality was determined using a spectrophotometer, and cDNA was made using the iScript cDNA synthesis kit (BioRad).
(§4) The expression levels of Sox17, HNF-3 beta, Pdx-1, insulin, and glucagon were determined by Real-Time PCR (RT-PCR), as described in Example 15. Samples of 20 ng cDNA were used in each reaction. RT-PCR reactions were performed on the Applied Biosystems 7500, and data was analyzed using the accompanying software. Human pancreas cDNA was included as a positive control. Results were normalized against GAPDH expression levels.
(§5) Real-time PCR amplifcation and quantitative analysis. Unless otherwise stated, all reagents were purchased from Applied Biosystems. Real-time PCR reactions were performed using the ABI PRISM™ 7500 Sequence Detection System. TAQMAN™ FAST UNIVERSAL PCR MASTER MIX™ (ABI, CA) was used with 20 ng of reverse transcribed RNA in a total reaction volume of 20 μl. Each cDNA sample was run in duplicate to allow correction of pipetting errors. Primers and FAM-labeled TAQMAN™ probes were used at concentrations of 200 nM. The level of expression for each target gene was normalized using the pre-developed Applied Biosystem's human glyceraldehyde-3-phosphate dehydrogenase (GAPDH) endogenous control kit. Primers and probes were designed using either ABI PRISM PRIMER EXPRESS™ software or a pre-developed ABI gene analysis kit. For each gene, either one of the primers or the probe were designed to be exon-boundary spanning. This eliminated the possibility of the primers/probe binding to any genomic DNA present. The primer and probe sets are listed as follows: Pdx-1 (Hs00426216), Insulin (Hs00355773), glucagon (Hs00174967), and FoxA2 (HNF 3-beta) (Hs00232764). The remaining primers were designed using the PRIMERS program (ABI, CA). After an initial 95° C. incubation for 20 sec, samples were cycled 40 times in two stages: a denaturation step at 95° C. for 3 sec, followed by an annealing/extension step at 60° C. for 30 sec.
(§6) For each primer/probe set, a cycle time value was determined as the cycle number at which the fluorescence intensity of the PCR reaction reached a specific value in the middle of the exponential region of amplification. An increase in expression of a gene corresponded to a decrease in the number of cycles required for the fluorescence intensity to reach this value.

Panc-1 cells = assay: as above; format: cell-based, human; conditions: for GAPDH gene expression / HNF-3 beta gene expression / Insulin gene expression / PDX-1 gene expression / Sox17 gene expression / glucagon gene expression: 48 hours
Protocol: as §1, §2, §3, §4, §5, §6

[2] = Panc-1 cells treated for 48 hours

In the case of `CC(/C=C/C(=O)NO)=C\[C@@H](C)C(=O)c1ccc(N(C)C)cc1` [trichostatin A], the GAPDH gene expression ([1]; 2.5 μM) is reported as “+++ (detectable at less than 35 cycles by RT-PCR with SE less than 0.9)”, the HNF-3 beta gene expression ([1]; 2.5 μM) is reported as “+++ (detectable at less than 35 cycles by RT-PCR with SE less than 0.9)” and the Insulin gene expression ([1]; 2.5 μM) is reported as “nd (not detectable at >40 cycles by RT-PCR)”. For the same compound, the PDX-1 gene expression ([1]; 2.5 μM) was “+ (detectable at greater than 35–40 cycles by RT-PCR)”, the Sox17 gene expression ([1]; 2.5 μM) was “+++ (detectable at less than 35 cycles by RT-PCR with SE less than 0.9)” and the glucagon gene expression ([1]; 2.5 μM) was “+++ (detectable at less than 35 cycles by RT-PCR with SE less than 0.9)”. The GAPDH gene expression ([1]; 5.0 μM) was “+++ (detectable at less than 35 cycles by RT-PCR with SE less than 0.9)”, the HNF-3 beta gene expression ([1]; 5.0 μM) was “+++ (detectable at less than 35 cycles by RT-PCR with SE less than 0.9)” and the Insulin gene expression ([1]; 5.0 μM) was “nd (not detectable at >40 cycles by RT-PCR)”. For the same compound, the PDX-1 gene expression ([1]; 5.0 μM) was “+ (detectable at greater than 35–40 cycles by RT-PCR)”, the Sox17 gene expression ([1]; 5.0 μM) was “+++ (detectable at less than 35 cycles by RT-PCR with SE less than 0.9)” and the glucagon gene expression ([1]; 5.0 μM) was “+++ (detectable at less than 35 cycles by RT-PCR with SE less than 0.9)”. For the same compound, the GAPDH gene expression (Panc-1 cells; 2.5 μM) was “+++ (detectable at less than 35 cycles by RT-PCR with SE less than 0.9)”, the HNF-3 beta gene expression (Panc-1 cells; 2.5 μM) was “+++ (detectable at less than 35 cycles by RT-PCR with SE less than 0.9)” and the Insulin gene expression (Panc-1 cells; 2.5 μM) was “+ (detectable at greater than 35–40 cycles by RT-PCR)”. For the same compound, the PDX-1 gene expression (Panc-1 cells; 2.5 μM) was “+++ (detectable at less than 35 cycles by RT-PCR with SE less than 0.9)”, the Sox17 gene expression (Panc-1 cells; 2.5 μM) was “+++ (detectable at less than 35 cycles by RT-PCR with SE less than 0.9)” and the glucagon gene expression (Panc-1 cells; 2.5 μM) was “+++ (detectable at less than 35 cycles by RT-PCR with SE less than 0.9)”. The GAPDH gene expression (Panc-1 cells; 5.0 μM) was “+++ (detectable at less than 35 cycles by RT-PCR with SE less than 0.9)”, the HNF-3 beta gene expression (Panc-1 cells; 5.0 μM) was “+++ (detectable at less than 35 cycles by RT-PCR with SE less than 0.9)” and the Insulin gene expression (Panc-1 cells; 5.0 μM) was “+ (detectable at greater than 35–40 cycles by RT-PCR)”. For the same compound, the PDX-1 gene expression (Panc-1 cells; 5.0 μM) was “+++ (detectable at less than 35 cycles by RT-PCR with SE less than 0.9)”, the Sox17 gene expression (Panc-1 cells; 5.0 μM) was “+++ (detectable at less than 35 cycles by RT-PCR with SE less than 0.9)” and the glucagon gene expression (Panc-1 cells; 5.0 μM) was “+++ (detectable at less than 35 cycles by RT-PCR with SE less than 0.9)”. For the same compound, the “Pdx-1 expression with 5.0 μm versus 2.5 μM trichostatin A” value (Panc-1 cells; [2]) was 11 times higher, the “Sox-17 expression with 5.0 μm versus 2.5 μM trichostatin A” value (Panc-1 cells; [2]) was 60 times higher and the “glucagon expression with 5.0 μm versus 2.5 μM trichostatin A” value (Panc-1 cells; [2]) was 5 times higher.
